# Laboratory results from US11090319B2, “Therapeutic uses of pharmaceutical compositions comprising cyclic boronic acid ester derivatives” (Melinta Subsidiary Corp., priority 2010, dated 2021).
# Like-named read-outs stand apart in the source and are kept apart here.
# Experiments:
# [1] = test system: AB1052 Acinetobacter baumannii OXA-24; assay: Ceftazidime MIC with fixed concentration of BLI; assay type: cell-based; conditions: derivative at 10 μg/mL; AB1052 OXA-24
# Description: (§1) Next, ceftazidime potentiation activity of several cyclic boronic acid ester derivatives was tested using a larger panel of strains expressing β-lactamase hydrolyzing enzymes. Ceftazidime MICs were determined alone and in the presence of fixed concentrations of various cyclic boronic acid ester derivatives.
# [2] = test system: CF1000 Citrobacter freundii Hyper AmpC expression; assay: Ceftazidime MIC with fixed concentration of BLI; assay type: cell-based; conditions: derivative at 10 μg/mL
# Description: as §1
# [3] = test system: CF1001 Citrobacter freundii Hyper AmpC expression; assay: Ceftazidime MIC with fixed concentration of BLI; assay type: cell-based; conditions: derivative at 10 μg/mL
# Description: as §1
# [4] = test system: EC1016 Escherichia coli FOX-5; assay: Ceftazidime MIC with fixed concentration of BLI; assay type: cell-based; conditions: derivative at 10 μg/mL; EC1016 FOX-5
# Description: as §1
# [5] = test system: ECL1003 Enterobacter cloacae Hyper AmpC expression; assay: Ceftazidime MIC with fixed concentration of BLI; assay type: cell-based; conditions: derivative at 10 μg/mL
# Description: as §1
# [6] = test system: KP1006 Klebsiella pneumoniae CTX-M2; assay: Ceftazidime MIC with fixed concentration of BLI; assay type: cell-based; conditions: derivative at 10 μg/mL
# Description: as §1
# [7] = test system: KP1012 Klebsiella pneumoniae SHV-18; assay: Ceftazidime MIC with fixed concentration of BLI; assay type: cell-based; conditions: derivative at 10 μg/mL; KP1012 SHV-18
# Description: as §1
# [8] = test system: KP1013 Klebsiella pneumoniae CMY-2; assay: Ceftazidime MIC with fixed concentration of BLI; assay type: cell-based; conditions: derivative at 10 μg/mL; KP1013 CMY-2
# Description: as §1
# [9] = test system: KP1014 Klebsiella pneumoniae Vim-1; assay: Ceftazidime MIC with fixed concentration of BLI; assay type: cell-based; conditions: derivative at 10 μg/mL; KP1014 Vim-1
# Description: as §1
# SA1000 Salmonella CMY-2 = assay: Ceftazidime MIC with fixed concentration of BLI; assay type: cell-based; conditions: derivative at 10 μg/mL; SA1000 CMY-2
# Description: as §1
# [10] = test system: KP1011 Klebsiella pneumoniae SHV-5; assay: microbe, parasite or virus in culture; assay type: cell-based; conditions: derivative at 10 μg/mL; KP1011 SHV-5
# Description: as §1
# [11] = biological target: various β-lactamases (bacterial lysates) (Escherichia coli, UniProt A0A5R8T042); assay: biochemical; assay type: biochemical; conditions: read-out: AZT IC50 KP1009 CTX-M-15
# [12] = biological target: various β-lactamases (bacterial lysates) (Klebsiella pneumoniae, UniProt Q9F663); assay: biochemical; assay type: biochemical; conditions: aztreonam cleavage
# [13] = biological target: various β-lactamases (bacterial lysates) (Klebsiella pneumoniae, UniProt Q9F663, H272Y); assay: biochemical; assay type: biochemical
# [14] = biological target: various β-lactamases (bacterial lysates) (Pseudomonas aeruginosa, UniProt P14489); assay: biochemical; assay type: biochemical; conditions: AZT IC50 KP1007 OXA-10
# [15] = biological target: various β-lactamases (bacterial lysates) (Salmonella typhimurium, UniProt P0A1V8); assay: biochemical; assay type: biochemical; conditions: AZT IC50 KPX1001 OXA-2
# [16] = test system: AB1052 Acinetobacter baumannii OXA-24; assay: Checkerboard assay, biapenem potentiation; conditions: Biapenem MIC 8-fold; AB1052 OXA-24 class D
# SME-2, lysate of SM1000 = SME-2, lysate of SM1000 (Serratia marcescens, UniProt P52682); assay: Inhibition of biapenem hydrolysis by bacterial lysate; conditions: read-out: IC50 of inhibition of biapenem hydrolysis; SM1000 SME-2
# [17] = biological target: CTX-M-14, lysate of KP1005 (Escherichia coli, UniProt Q9L5C7); assay: Inhibition of ceftazidime hydrolysis by bacterial lysate
# [18] = biological target: CTX-M-15, lysate of KP1009 (Escherichia coli, UniProt Q9EXV5); assay: as above
# GES-1, lysate of pa 1063 = GES-1, lysate of pa 1063 (Klebsiella pneumoniae, UniProt Q9KJY7); assay: as above
# KPC-2, lysate of KP1004 = KPC-2, lysate of KP1004 (Klebsiella pneumoniae, UniProt Q9F663); assay: as above
# KPC-2, lysate of KP1008 = KPC-2, lysate of KP1008 (Klebsiella pneumoniae, UniProt Q9F663); assay: as above
# SHV-12, lysate of KP1010 = SHV-12, lysate of KP1010 (Klebsiella pneumoniae, UniProt P0AD64, E235K/G234S/L31Q); assay: as above
# SHV-18, lysate of KP1012 = SHV-18, lysate of KP1012 (Klebsiella pneumoniae, UniProt P0AD64, E235K/G234A/R39S); assay: as above
# SHV-2, lysate of ec306 = SHV-2, lysate of ec306 (Escherichia coli, UniProt P0A9Z7); assay: as above
# DHA-1, lysate of EC1014 = DHA-1, lysate of EC1014 (Escherichia coli, UniProt Q84AE0); assay: as above; conditions: read-out: IC50 of inhibition of Ceftazidime hydrolysis; EC1014 DHA-1
# OXA-10, lysate of KP1007 = OXA-10, lysate of KP1007 (Pseudomonas aeruginosa, UniProt P14489); assay: as above
# OXA-2, lysate of KX1000 = OXA-2, lysate of KX1000 (Salmonella typhimurium, UniProt P0A1V8); assay: as above
# [19] = lysate KP1004 KPC-2, read-out: AZT IC50 KP1004 KPC-2 (converted)
# [20] = lysate KP1008 KPC-2, read-out: AZT IC50 KP1008 KPC-2
# various β-lactamases (bacterial lysates) (Klebsiella pneumoniae, UniProt Q9F663), sequence (Q9F663 whole entry, looked up): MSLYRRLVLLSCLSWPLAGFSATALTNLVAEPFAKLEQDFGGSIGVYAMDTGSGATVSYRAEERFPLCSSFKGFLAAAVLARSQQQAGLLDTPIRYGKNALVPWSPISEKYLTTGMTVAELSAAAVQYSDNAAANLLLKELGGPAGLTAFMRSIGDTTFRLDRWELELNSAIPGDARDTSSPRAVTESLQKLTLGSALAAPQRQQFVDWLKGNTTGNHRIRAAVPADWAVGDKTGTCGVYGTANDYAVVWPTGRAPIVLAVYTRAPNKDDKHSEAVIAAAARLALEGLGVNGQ
# GES-1, lysate of pa 1063, sequence (Q9KJY7 19-287): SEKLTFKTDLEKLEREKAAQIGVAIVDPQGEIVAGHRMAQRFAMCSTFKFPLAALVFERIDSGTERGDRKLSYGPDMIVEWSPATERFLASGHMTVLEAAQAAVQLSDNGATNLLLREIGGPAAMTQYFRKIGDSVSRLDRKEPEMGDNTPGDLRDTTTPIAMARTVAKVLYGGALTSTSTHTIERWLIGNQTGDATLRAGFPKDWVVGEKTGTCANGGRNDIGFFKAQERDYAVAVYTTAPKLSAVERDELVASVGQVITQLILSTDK
# KPC-2, lysate of KP1008, sequence (Q9F663 25-293 limits assumed): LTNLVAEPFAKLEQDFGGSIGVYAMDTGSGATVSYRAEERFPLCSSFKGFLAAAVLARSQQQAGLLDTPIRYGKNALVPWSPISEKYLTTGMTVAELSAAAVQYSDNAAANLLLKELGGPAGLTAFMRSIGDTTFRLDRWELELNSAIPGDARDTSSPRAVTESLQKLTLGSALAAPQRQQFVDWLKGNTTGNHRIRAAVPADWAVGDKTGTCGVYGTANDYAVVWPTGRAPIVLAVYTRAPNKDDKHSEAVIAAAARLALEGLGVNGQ
# KPC-2, lysate of KP1004, sequence (Q9F663 25-293 limits assumed): as above
# SHV-2, lysate of ec306, sequence (P0A9Z7 22-286): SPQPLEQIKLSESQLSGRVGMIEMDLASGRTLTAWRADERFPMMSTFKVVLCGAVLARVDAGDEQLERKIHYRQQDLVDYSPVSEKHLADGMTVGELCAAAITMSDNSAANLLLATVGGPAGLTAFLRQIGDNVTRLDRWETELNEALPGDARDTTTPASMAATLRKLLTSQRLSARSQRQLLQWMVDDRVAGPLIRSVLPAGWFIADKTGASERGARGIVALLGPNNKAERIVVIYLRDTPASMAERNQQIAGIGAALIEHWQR
# various β-lactamases (bacterial lysates) (Pseudomonas aeruginosa, UniProt P14489), sequence (P14489 20-266): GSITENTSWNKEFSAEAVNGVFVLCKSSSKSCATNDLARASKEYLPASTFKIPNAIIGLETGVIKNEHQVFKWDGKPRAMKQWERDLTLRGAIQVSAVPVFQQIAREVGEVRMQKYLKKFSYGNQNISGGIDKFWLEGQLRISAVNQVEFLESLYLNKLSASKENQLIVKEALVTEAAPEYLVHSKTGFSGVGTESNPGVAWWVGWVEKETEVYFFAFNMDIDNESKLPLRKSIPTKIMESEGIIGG
# OXA-10, lysate of KP1007, sequence (P14489 20-266): as above
# SHV-18, lysate of KP1012, sequence (P0AD64 22-286 R39S/G234A/E235K): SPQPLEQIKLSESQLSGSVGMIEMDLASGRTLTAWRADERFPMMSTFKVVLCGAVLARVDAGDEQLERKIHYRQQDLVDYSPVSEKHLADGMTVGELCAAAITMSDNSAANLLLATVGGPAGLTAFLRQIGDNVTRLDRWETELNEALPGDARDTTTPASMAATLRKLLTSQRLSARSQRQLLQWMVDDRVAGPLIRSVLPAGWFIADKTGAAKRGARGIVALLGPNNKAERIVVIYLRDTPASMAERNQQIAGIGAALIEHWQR
# CTX-M-14, lysate of KP1005, sequence (Q9L5C7 entry or part of it): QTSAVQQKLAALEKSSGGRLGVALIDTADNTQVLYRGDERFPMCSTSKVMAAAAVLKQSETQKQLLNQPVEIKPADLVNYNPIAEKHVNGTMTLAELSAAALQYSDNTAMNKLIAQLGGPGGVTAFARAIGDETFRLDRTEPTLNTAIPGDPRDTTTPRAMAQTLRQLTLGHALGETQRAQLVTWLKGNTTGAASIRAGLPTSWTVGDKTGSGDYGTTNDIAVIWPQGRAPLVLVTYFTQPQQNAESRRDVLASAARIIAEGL
# various β-lactamases (bacterial lysates) (Salmonella typhimurium, UniProt P0A1V8), sequence (P0A1V8 22-275): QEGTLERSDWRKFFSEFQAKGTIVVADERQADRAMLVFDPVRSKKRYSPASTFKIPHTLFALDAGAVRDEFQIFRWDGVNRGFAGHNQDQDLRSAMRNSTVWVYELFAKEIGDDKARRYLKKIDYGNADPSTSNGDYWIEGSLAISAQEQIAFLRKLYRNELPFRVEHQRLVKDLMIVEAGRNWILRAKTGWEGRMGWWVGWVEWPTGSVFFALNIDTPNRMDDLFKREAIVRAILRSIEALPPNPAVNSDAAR
# OXA-2, lysate of KX1000, sequence (P0A1V8 22-275): as above
# CTX-M-15, lysate of KP1009, sequence (Q9EXV5 entry or part of it): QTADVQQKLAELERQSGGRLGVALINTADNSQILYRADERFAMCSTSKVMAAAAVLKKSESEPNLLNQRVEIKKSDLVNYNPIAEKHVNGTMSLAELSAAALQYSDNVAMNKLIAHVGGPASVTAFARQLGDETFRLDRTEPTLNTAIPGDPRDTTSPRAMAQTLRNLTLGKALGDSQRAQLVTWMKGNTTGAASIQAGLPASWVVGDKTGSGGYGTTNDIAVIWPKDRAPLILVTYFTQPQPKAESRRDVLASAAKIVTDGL
# various β-lactamases (bacterial lysates) (Escherichia coli, UniProt A0A5R8T042), sequence (A0A5R8T042 29-291): as the sequence (Q9EXV5 entry or part of it) above
# various β-lactamases (bacterial lysates) (Klebsiella pneumoniae, UniProt Q9F663, H272Y), sequence (Q9F663 whole entry H272Y, looked up): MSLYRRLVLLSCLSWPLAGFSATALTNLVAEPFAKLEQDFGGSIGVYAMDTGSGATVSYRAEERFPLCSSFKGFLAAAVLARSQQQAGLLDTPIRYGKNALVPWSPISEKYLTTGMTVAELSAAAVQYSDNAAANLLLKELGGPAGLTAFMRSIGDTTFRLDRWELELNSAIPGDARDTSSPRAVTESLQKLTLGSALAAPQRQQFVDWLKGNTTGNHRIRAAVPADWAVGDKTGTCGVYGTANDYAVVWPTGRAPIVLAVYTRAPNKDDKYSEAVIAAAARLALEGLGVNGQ
# SHV-12, lysate of KP1010, sequence (P0AD64 22-286 L31Q/G234S/E235K): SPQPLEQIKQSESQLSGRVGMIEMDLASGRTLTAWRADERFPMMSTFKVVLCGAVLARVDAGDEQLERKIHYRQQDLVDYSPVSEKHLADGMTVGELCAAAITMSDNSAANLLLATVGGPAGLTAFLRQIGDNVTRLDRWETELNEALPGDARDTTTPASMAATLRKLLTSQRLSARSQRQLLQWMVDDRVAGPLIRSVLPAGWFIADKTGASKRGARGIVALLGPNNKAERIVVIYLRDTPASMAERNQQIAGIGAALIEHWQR
# SME-2, lysate of SM1000, sequence (P52682 28-294 limits assumed): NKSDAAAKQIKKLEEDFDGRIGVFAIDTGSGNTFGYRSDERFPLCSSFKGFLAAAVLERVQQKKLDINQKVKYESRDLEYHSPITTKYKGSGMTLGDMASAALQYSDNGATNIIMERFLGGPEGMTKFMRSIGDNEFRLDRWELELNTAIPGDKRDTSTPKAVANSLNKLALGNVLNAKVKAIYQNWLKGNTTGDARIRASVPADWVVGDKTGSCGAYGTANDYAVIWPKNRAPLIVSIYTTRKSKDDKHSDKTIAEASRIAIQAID
SMILES,Ceftazidime MIC with cyclic boronic acid ester derivative [1],Ceftazidime MIC with cyclic boronic acid ester derivative [2],Ceftazidime MIC with cyclic boronic acid ester derivative [3],Ceftazidime MIC with cyclic boronic acid ester derivative [4],Ceftazidime MIC with cyclic boronic acid ester derivative [5],Ceftazidime MIC with cyclic boronic acid ester derivative [6],Ceftazidime MIC with cyclic boronic acid ester derivative [7],Ceftazidime MIC with cyclic boronic acid ester derivative [8],Ceftazidime MIC with cyclic boronic acid ester derivative [9],Ceftazidime MIC with cyclic boronic acid ester derivative (SA1000 Salmonella CMY-2),Ceftazidime MIC with cyclic boronic acid ester derivative [10],IC50 [11] [µM],"IC50 [12, 19] [µM]","IC50 [12, 20] [µM]",IC50 [13] [µM],IC50 [14] [µM],IC50 [15] [µM],MPC8 [16],"IC50 (SME-2, lysate of SM1000) [µM]",IC50 [17] [µM],further results
"O=C(O)CC1CC[C@H](NC(=O)C2CC2)B(O)O1 (stereo partly drawn) [Compound 4, 2-((3R)-3-(cyclopropanecarboxamido)-2-hydroxy-1,2-oxaborinan-6-yl)acetic acid]",Z (MIC of greater than 8 μg/mL),Z (MIC of greater than 8 μg/mL),Z (MIC of greater than 8 μg/mL),Z (MIC of greater than 8 μg/mL),Z (MIC of greater than 8 μg/mL),X (MIC of 1 μg/mL or less),Z (MIC of greater than 8 μg/mL),Y (MIC of greater than 1 μg/mL to 8 μg/mL),Z (MIC of greater than 8 μg/mL),Y (MIC of greater than 1 μg/mL to 8 μg/mL),X (MIC of 1 μg/mL or less),2.07 to 8.3,< 2.07,< 2.07,< 2.07,> 8.3,> 8.3,Z (MPC8 of greater than 1 μg/mL),0.415 to 4.15,> 4.15,"IC50 [18]: > 4.15 µM; IC50 (GES-1, lysate of pa 1063): 0.415 to 4.15 µM; IC50 (KPC-2, lysate of KP1004): < 0.415 µM; IC50 (KPC-2, lysate of KP1008): < 0.415 µM; IC50 (SHV-12, lysate of KP1010): > 4.15 µM; IC50 (SHV-18, lysate of KP1012): > 4.15 µM; IC50 (SHV-2, lysate of ec306): > 4.15 µM; IC50 (DHA-1, lysate of EC1014): > 4.15 µM; IC50 (OXA-10, lysate of KP1007): > 4.15 µM; IC50 (OXA-2, lysate of KX1000): > 4.15 µM"
"O=C(O)C[C@@H]1CC[C@H](NC(=O)Cc2ccccc2)B(O)O1 [Compound 6, 2-((3R,6S)-2-hydroxy-3-(2-phenylacetamido)-1,2-oxaborinan-6-yl)acetic acid]",Z (MIC of greater than 8 μg/mL),Y (MIC of greater than 1 μg/mL to 8 μg/mL),Y (MIC of greater than 1 μg/mL to 8 μg/mL),Z (MIC of greater than 8 μg/mL),Z (MIC of greater than 8 μg/mL),X (MIC of 1 μg/mL or less),Y (MIC of greater than 1 μg/mL to 8 μg/mL),Y (MIC of greater than 1 μg/mL to 8 μg/mL),Z (MIC of greater than 8 μg/mL),X (MIC of 1 μg/mL or less),X (MIC of 1 μg/mL or less),< 1.72,< 1.72,< 1.72,< 1.72,> 6.87,1.72 to 6.87,Z (MPC8 of greater than 1 μg/mL),0.344 to 3.44,0.344 to 3.44,"IC50 [18]: 0.344 to 3.44 µM; IC50 (GES-1, lysate of pa 1063): 0.344 to 3.44 µM; IC50 (KPC-2, lysate of KP1004): < 0.344 µM; IC50 (KPC-2, lysate of KP1008): < 0.344 µM; IC50 (SHV-12, lysate of KP1010): > 3.44 µM; IC50 (SHV-18, lysate of KP1012): 0.344 to 3.44 µM; IC50 (SHV-2, lysate of ec306): 0.344 to 3.44 µM; IC50 (DHA-1, lysate of EC1014): > 3.44 µM; IC50 (OXA-10, lysate of KP1007): > 3.44 µM; IC50 (OXA-2, lysate of KX1000): 0.344 to 3.44 µM"
